Test results reported in patent US6518296B1, “Substituted 3-thiocarbamoylpyrazoles” (Bayer Aktiengesellschaft, priority 1998, dated 2003).

Tests used:
[1] = tested on: green peach aphid (Myzus persicae); assay: Myzus test; type: in vivo; settings: active compound concentration of 0.1%; after 6 days; dipped cabbage leaves
Procedure: Solvent: 7 parts by weight of dimethylformamide
Emulsifier: 1 part by weight of alkylaryl polyglycol ether
To produce a suitable preparation of active compound, 1 part by weight of active compound is mixed with the stated amounts of solvent and emulsifier, and the concentrate is diluted with water to the desired concentration.
Cabbage leaves (Brassica oleracea) which are heavily infested by the green peach aphid (Mycus persicae) are treated by being dipped into the preparation of active compound of the desired concentration.
After the desired period of time, the kill in % is determined. 100% means that all aphids have been killed; 0% means that none of the aphids have been killed.

Lucilia cuprina larvae = assay: Blowfly larvae test/development-inhibitory action; type: in vivo; settings: active compound concentration of 100 ppm, read-out: activity (development-inhibitory action; 100% means that no flies have hatched)
Procedure: Blowfly larvae test/development-inhibitory action
Test animals: Lucilia cuprina larvae
(§1) Solvent: Dimethyl sulphoxide
(§2) 20 mg of active compound are dissolved in 1 ml of dimethyl sulphoxide, while dilute concentrations are prepared by dilution with dist. H2O.
About 20 Lucilia cuprina larvae are introduced into a test tube containing about 1 cm^3 of horse meat and 0.5 ml of the preparation of active compound. After 24 and 48 hours, the activity of the preparation of active compound is determined. The test tubes are transferred into beakers whose bottom is covered with sand. After a further 2 days, the test tubes are removed and the pupae are counted.
The activity of the active compound preparation is assessed by the number of flies which have hatched after 1.5 times the development time of an untreated control. 100% means that no flies have hatched; 0% means that all flies have hatched normally.

[2] = tested on: Boophilus microplus resistant/SP-resistant Parkhurst strain; assay: Test with Boophilus microplus resistant/SP-resistant Parkhurst strain (dip test, kill); type: in vivo; settings: active compound concentration of 100 ppm; dipped for 1 minute
Procedure: Test with Boophilus microplus resistant/SP-resistant Parkhurst strain
(§3) Test animals: Adult females which have sucked themselves full
as §1, §2
10 adult Boophilus microplus res. are dipped for 1 minute into the preparation of active compound to be tested. The animals are transferred into plastic beakers and kept in a climatized room, and the kill rate is then determined.
100% means that all ticks have been killed; 0% means that none of the ticks have been killed.

[3] = tested on: Boophilus microplus resistant/SP-resistant Parkhurst strain; assay: Test with Boophilus microplus resistant/SP-resistant Parkhurst strain (injection, inhibition of oviposition); type: in vivo; settings: 20 μg/animal; injected into the abdomen; after 7 days
Procedure: Test with Boophilus microplus resistantlSP-resistant Parkhurst strain
as §3, §1
20 mg of active compound are dissolved in 1 ml of dimethyl sulphoxide, while dilute concentrations are prepared by dilution with the same solvent.
The test is carried out in 5 replications. […] of the solutions is injected into the abdomen, the animals are transferred into dishes and kept in a climatized room. After 7 days, the activity control is carried out for inhibition of ovi position. An activity of 100% means that none of the ticks has deposited eggs.

Question: With `CCSc1c(C(N)=S)nn(-c2c(Cl)cc(C(F)(F)F)cc2Cl)c1N` [Preparation Example 1, 5-amino-4-ethylthio-l-(2,6-dichloro-4-trifluoro-methylphenyl)-3-thiocarbamoyl-pyrazole] as the compound, how does the kill [1] read?
Answer: The kill was 90%.

Question: And the inhibition at 100 ppm (Lucilia cuprina larvae)?
Answer: Its inhibition at 100 ppm is 100%.

Question: And the “activity (kill rate of ticks)” value [2]?
Answer: Its value is 100%.

Question: What about the “activity (inhibition of oviposition)” value [3] of the same compound?
Answer: Its value is 100%.

Question: And the melting point?
Answer: The melting point was 101 °C.
